Source: PubChem BioAssay AID328 (DTP/NCI, 2004)
Several values for one entry are separate records, joined by “and”; a condition that tells them apart may be missing. Identical values can stand only once. Toxic doses and inconclusive results are not listed.

Tested on: BDF1 mice, P388 leukemia ip, median survival T/C
Experiment: NCI In Vivo Anticancer Drug Screen. Data for tumor model P388 Leukemia (intraperitoneal) in B6D2F1 (BDF1) mice
Settings: endpoint: median survival time, higher = longer survival
Procedure: The antitumor activity of compounds was measured in mice bearing transplantable tumors. Survival or tumor size were measured and the results are expressed as the measurement made in the treated group (T) divided by the measurement made in the vehicle treated control group (C). The tumor model used in this assay is P388 Leukemia (intraperitoneal) in B6D2F1 (BDF1) mice

[1] = dose: 12.5 mg/kg/injection, schedule: Q01DX009 (ip), vehicle: Klucel (hydroxypropylcellulose) (HPC)
[2] = dose: 50.0 mg/kg/injection, schedule: Q01DX009 (ip), vehicle: Klucel (hydroxypropylcellulose) (HPC)
[3] = dose: 25.0 mg/kg/injection, schedule: Q01DX009 (ip), vehicle: saline with Tween-80
[4] = dose: 50.0 mg/kg/injection, schedule: Q01DX009 (ip), vehicle: saline with Tween-80
[5] = dose: 100.0 mg/kg/injection, schedule: Q01DX009 (ip), vehicle: saline with Tween-80
[6] = dose: 200.0 mg/kg/injection, schedule: Q01DX009 (ip), vehicle: saline with Tween-80
[7] = dose: 6.25 mg/kg/injection, schedule: Q01DX009 (ip), vehicle: saline with Tween-80
[8] = dose: 12.5 mg/kg/injection, schedule: Q01DX009 (ip), vehicle: saline with Tween-80

Cn1cnc([N+](=O)[O-])c1S(=O)(=O)NCN1CCOCC1
T/C [1]: 118 % of control
T/C [2]: 121 % of control
T/C (dose: 100.0 mg/kg/injection, schedule: Q01DX009 (ip), vehicle: Klucel (hydroxypropylcellulose) (HPC)): 116 % of control

CCCCCCC(=O)/C=C/c1c(Cl)cccc1Cl
T/C [3]: 91 % of control
T/C [4]: 112 % of control
T/C [5]: 103 % of control and 108 % of control
T/C [6]: 116 % of control

c1cc(Nc2ccncc2)ccn1
T/C [7]: 96 % of control
T/C (dose: 6.25 mg/kg/injection, schedule: Q04DX003 (ip), vehicle: saline): 115 % of control
T/C [8]: 104 % of control
T/C (dose: 12.5 mg/kg/injection, schedule: Q04DX003 (ip), vehicle: saline): 92 % of control
T/C [3]: 108 % of control
T/C (dose: 25.0 mg/kg/injection, schedule: Q04DX003 (ip), vehicle: saline): 107 % of control

CC/C(C)=C1\OC(=O)C(C)C(O)C(Cc2cccnc2)NC(=O)C(NC(=O)c2ncccc2O)C(C)OC1=O (stereo unspecified)
T/C (dose: 3.13 mg/kg/injection, schedule: Q01DX009 (ip), vehicle: saline with Tween-80): 97 % of control
T/C [7]: 106 % of control
T/C [8]: 103 % of control
T/C [3]: 93 % of control

COc1cc(O)c2c(c1)C(=O)c1cc3c(c(O)c1C2=O)C(OC1OC(C)C(OC)C(O)C1OC)C(OC)C(C)(O)C3=O (stereo unspecified)
T/C (dose: 17.5 mg/kg/injection, schedule: Q01DX009 (ip), vehicle: saline): 86 % of control
T/C (dose: 35.0 mg/kg/injection, schedule: Q01DX009 (ip), vehicle: saline): 93 % of control
T/C [4]: 97 % of control
T/C (dose: 70.0 mg/kg/injection, schedule: Q01DX009 (ip), vehicle: saline): 93 % of control
T/C [5]: 120 % of control
T/C [6]: 116 % of control

Nc1ccc(S(=O)(=O)c2cc(O)c3ccccc3c2O)cc1
T/C (dose: 6.25 mg/kg/injection, schedule: Q01DX009 (ip), vehicle: Klucel (hydroxypropylcellulose) (HPC)): 118 % of control
T/C [1]: 104 % of control
T/C (dose: 25.0 mg/kg/injection, schedule: Q01DX009 (ip), vehicle: Klucel (hydroxypropylcellulose) (HPC)): 122 % of control

CP(O)(=S)C1CCCCC1 (stereo unspecified) (tested in a mixture with another compound)
T/C (dose: 50.0 mg/kg/injection, schedule: Q01DX005 (ip), vehicle: saline): 94 % of control
T/C (dose: 100.0 mg/kg/injection, schedule: Q01DX005 (ip), vehicle: saline): 91 % of control
T/C (dose: 200.0 mg/kg/injection, schedule: Q01DX005 (ip), vehicle: saline): 90 % of control

CCCC(=O)c1ccco1
T/C [4]: 101 % of control

CC[C@]12CN3CCc4c([nH]c5ccccc45)[C@@](C(=O)OC)(c4cc5c(cc4OC)N(C)[C@H]4[C@@](O)(C(=O)OC)[C@H](OC(C)=O)[C@]6(CC)C=CCN7CC[C@]54[C@@H]76)CC(C3)[C@H]1O2 (stereo partly specified)
T/C (dose: 0.5 mg/kg/injection, schedule: Q01DX009 (ip), vehicle: saline): 155 % of control
T/C (dose: 1.0 mg/kg/injection, schedule: Q01DX009 (ip), vehicle: saline): 160 % of control
T/C (dose: 1.5 mg/kg/injection, schedule: Q01DX009 (ip), vehicle: Klucel (hydroxypropylcellulose) (HPC)): 124 % of control
T/C (dose: 3.0 mg/kg/injection, schedule: Q01DX009 (ip), vehicle: Klucel (hydroxypropylcellulose) (HPC)): 162 % of control
T/C (dose: 3.0 mg/kg/injection, schedule: Q01DX009 (ip), vehicle: saline): 180 % of control
T/C (dose: 3.9 mg/kg/injection, schedule: Q01DX009 (ip), vehicle: saline): 160 % of control
T/C (dose: 6.0 mg/kg/injection, schedule: Q01DX009 (ip), vehicle: Klucel (hydroxypropylcellulose) (HPC)): 170 % of control and 171 % of control
T/C (dose: 6.0 mg/kg/injection, schedule: Q01DX009 (ip), vehicle: saline with Tween-80): 225 % of control
T/C (dose: 6.0 mg/kg/injection, schedule: Q01DX009 (ip), vehicle: saline): 234 % of control and 200 % of control
T/C (dose: 9.0 mg/kg/injection, schedule: Q01DX009 (ip), vehicle: saline with Tween-80): 95 % of control
T/C (dose: 9.0 mg/kg/injection, schedule: Q01DX009 (ip), vehicle: saline): 252 % of control
T/C (dose: 12.0 mg/kg/injection, schedule: Q01DX009 (ip), vehicle: Klucel (hydroxypropylcellulose) (HPC)): 186 % of control and 216 % of control
T/C (dose: 12.0 mg/kg/injection, schedule: Q01DX009 (ip), vehicle: saline): 240 % of control
T/C (dose: 5.0 micrograms/kg/injection, schedule: Q01DX009 (ip), vehicle: saline): 104 % of control
T/C (dose: 10.0 micrograms/kg/injection, schedule: Q01DX009 (ip), vehicle: saline): 109 % of control
T/C (dose: 30.0 micrograms/kg/injection, schedule: Q01DX009 (ip), vehicle: saline): 109 % of control
T/C (dose: 60.0 micrograms/kg/injection, schedule: Q01DX009 (ip), vehicle: saline): 100 % of control
T/C (dose: 120.0 micrograms/kg/injection, schedule: Q01DX009 (ip), vehicle: saline): 95 % of control

CC(C)(C)C1CC[N-]CC1.CC(C)(C)C1CC[N-]CC1.[Cl][Pt+2]([Cl])([Cl])[Cl]
T/C (dose: 0.78 mg/kg/injection, schedule: Q01DX009 (ip), vehicle: saline): 110 % of control
T/C (dose: 1.56 mg/kg/injection, schedule: Q01DX009 (ip), vehicle: saline): 115 % of control and 117 % of control
T/C (dose: 3.12 mg/kg/injection, schedule: Q01DX009 (ip), vehicle: saline): 100 % of control and 102 % of control and 111 % of control
T/C (dose: 6.25 mg/kg/injection, schedule: Q01DX009 (ip), vehicle: saline): 86 % of control and 108 % of control
T/C (dose: 12.5 mg/kg/injection, schedule: Q01DX009 (ip), vehicle: saline): 115 % of control
T/C (dose: 25.0 mg/kg/injection, schedule: Q01DX009 (ip), vehicle: saline): 91 % of control and 115 % of control

Nc1ncnc2c1ncn2C1OC(CO)CC1O (stereo unspecified)
T/C (dose: 4.68 mg/kg/injection, schedule: Q01DX009 (ip), vehicle: Klucel (hydroxypropylcellulose) (HPC)): 108 % of control
T/C (dose: 9.37 mg/kg/injection, schedule: Q01DX009 (ip), vehicle: Klucel (hydroxypropylcellulose) (HPC)): 106 % of control
T/C (dose: 18.75 mg/kg/injection, schedule: Q01DX009 (ip), vehicle: Klucel (hydroxypropylcellulose) (HPC)): 106 % of control
T/C (dose: 37.5 mg/kg/injection, schedule: Q01DX009 (ip), vehicle: Klucel (hydroxypropylcellulose) (HPC)): 111 % of control
T/C (dose: 75.0 mg/kg/injection, schedule: Q01DX009 (ip), vehicle: Klucel (hydroxypropylcellulose) (HPC)): 106 % of control
T/C (dose: 150.0 mg/kg/injection, schedule: Q01DX009 (ip), vehicle: Klucel (hydroxypropylcellulose) (HPC)): 106 % of control

Cc1ccc(C(=O)Cl)cc1S(=O)(=O)F
T/C [3]: 100 % of control
T/C (dose: 50.0 mg/kg/injection, schedule: Q04DX003 (ip), vehicle: saline with Tween-80): 101 % of control
T/C [5]: 93 % of control
T/C (dose: 100.0 mg/kg/injection, schedule: Q04DX003 (ip), vehicle: saline with Tween-80): 109 % of control
T/C (dose: 200.0 mg/kg/injection, schedule: Q04DX003 (ip), vehicle: saline with Tween-80): 101 % of control

COc1cccc2c1C(=O)c1c(OC)cccc1C2=O
T/C (dose: 25.0 mg/kg/injection, schedule: Q04DX003 (ip), vehicle: Klucel (hydroxypropylcellulose) (HPC)): 98 % of control
T/C (dose: 50.0 mg/kg/injection, schedule: Q04DX003 (ip), vehicle: Klucel (hydroxypropylcellulose) (HPC)): 97 % of control
T/C (dose: 100.0 mg/kg/injection, schedule: Q04DX003 (ip), vehicle: Klucel (hydroxypropylcellulose) (HPC)): 103 % of control
T/C (dose: 200.0 mg/kg/injection, schedule: Q04DX003 (ip), vehicle: Klucel (hydroxypropylcellulose) (HPC)): 98 % of control
T/C (dose: 400.0 mg/kg/injection, schedule: Q04DX003 (ip), vehicle: Klucel (hydroxypropylcellulose) (HPC)): 97 % of control

CC(Br)(C(Br)c1ccccc1)[N+](=O)[O-] (stereo unspecified)
T/C [2]: 123 % of control

COc1cc2c(cc1OC)C1CCc3cc4c(cc3C1N=C2)OCO4 (stereo unspecified)
T/C (dose: 20.0 mg/kg/injection, schedule: Q01DX009 (ip), vehicle: saline): 100 % of control
T/C (dose: 40.0 mg/kg/injection, schedule: Q01DX009 (ip), vehicle: saline): 105 % of control
T/C (dose: 80.0 mg/kg/injection, schedule: Q01DX009 (ip), vehicle: saline): 105 % of control
T/C (dose: 120.0 mg/kg/injection, schedule: Q01DX009 (ip), vehicle: saline): 105 % of control
T/C (dose: 240.0 mg/kg/injection, schedule: Q01DX009 (ip), vehicle: saline): 100 % of control
